Assays:
[1] = system: mesenchymal stem cell-positive markers CD44, CD73, CD90, CD105, CD166 and negative markers CD11b, CD14, CD19, CD34, CD45, HLA-DR; experiment: Stemness analysis by FACS in replicative senescence model (P18); format: cell-based, human; settings: 160 μM, 3 days
Protocol: Example 6. Comparative analysis of stemness of gut microbiota-derived metabolite for senescence control A replicative senescence model (P18) was treated with nervonic acid (160 μM) to assess the effect thereof on stemness and adipogenesis.
The replicative senescence model (P18) was treated with nervonic acid (160 μM), and the expression changes of the mesenchymal stem cell-positive markers CD44, CD73, CD90, CD105, and CD166, as well as the mesenchymal stem cell-negative markers CD11b, CD14, CD19, CD34, CD45, and HLA-DR were confirmed through FACS.
Specifically, 3.6×10^6 cells treated with nervonic acid (160 μM) for 3 days were centrifuged, suspended in 1.2 ml of FACS buffer (PBS 98%+FBS 2%), and allowed to stand at room temperature for 30 minutes. Thereafter, 100 ul thereof was dispensed into each of 11 1.5 ml tubes (3×10^5 cells per tube), and a predetermined amount of antibody was added to each tube, followed by reaction at room temperature for 20 minutes in a light-blocking state. After washing by adding 200 μl of FACS buffer, centrifugation was performed at room temperature at 300 g for 5 minutes, the supernatant was removed, and the cells were suspended in 500 μl of FACS buffer and then transferred to a FACS tube for analysis.

[2] = system: human placenta-derived mesenchymal stem cells (PL-MSCs/passage 18); experiment: β-galactosidase staining, senescent PL-MSCs; format: cell-based; settings: PL-MSCs passage 18, 3 days
From the text: (§1) Human placenta-derived mesenchymal stem cells (pl-mscs) Were Isolated From Placentas Separated according to the previously reported method of Choi et al. (PLOS ONE, (2017) 12 (2): e0172642), umbilical cord blood-derived mesenchymal stem cells (UCB-MSCs) were isolated from the umbilical cord blood separated according to the method of Kim et al. (FEBS Letters, (2010) 584:3601-3608), and adipose tissue-derived mesenchymal stem cells (AD-MSCs) were isolated from adipose tissue separated according to the previously reported method of Palumbo et al. (Int. J. Mol. Sci. (2018) 19:1987).
(§2) Each of the obtained mesenchymal stem cells was subcultured in aMEM (a-modified Minimum Essential Media) containing 10% fetal bovine serum (FBS) and 0.5% gentamicin (10 mg/ml).
(§3) The replicative senescence models of human adipose-derived mesenchymal stem cells (AD-MSCs/passage 18), human bone marrow-derived mesenchymal stem cells (BM-MSCs/passage 15), human umbilical cord blood-derived mesenchymal stem cells (UCB-MSCs/passage 16), and human placenta-derived mesenchymal stem cells (PL-MSCs/passage 18) established as described above were treated with nervonic acid for 3 days, and β-galactosidase staining was performed to observe the extent of senescence.

[3] = system: human adipose-derived mesenchymal stem cells (AD-MSCs/passage 18); experiment: β-galactosidase staining, senescent AD-MSCs; format: cell-based; settings: AD-MSCs passage 18, 3 days
From the text: as §1, §2, §3

[4] = system: control cells (P5), human umbilical cord-derived mesenchymal stem cells; experiment: Cell proliferation by CCK-8 assay, 6 days, control cells (P5); format: cell-based; settings: 160 μM
Protocol: (§4) Example 4. Validation of gut microbiota-derived metabolite candidate for senescence control Control cells (P5) and replicative senescence-induced human umbilical cord-derived mesenchymal stem cells (P18) were treated with nervonic acid (160 μM) to analyze the effects of the gut microbiota-derived metabolite having the ability to control senescence of stem cells on the proliferation of stem cells and cell size.
Specifically, control cells (p5) and replicative senescence-induced human umbilical cord-derived mesenchymal stem cells (P18) were exposed to nervonic acid (160 μM) in culture medium, followed by culture for 6 days while replacing the medium every 3 days, and cell proliferation was assessed using CCK-8 assay.

[5] = system: human-derived mesenchymal stem cells, control cells (P5) subcultured to P10; experiment: Doubling time by CCK-8 assay at P10 after treatment at each passage; format: cell-based; settings: 160 μM for 24 hours at each passage, at P10, CCK-8
Protocol: (§5) Example 8. Confirmation Of anti-senescence efficacy by treating various human tissue-derived mesenchymal stem cells with nervonic acid Human-derived mesenchymal stem cells were treated with nervonic acid (160 μM) at each passage during cell culture from control cells (P5) to P10 to determine whether continuous treatment with nervonic acid during cell culture at early passage numbers was able to delay cellular senescence.
Specifically, from the day after human-derived mesenchymal stem cells were subcultured, treatment with 160 μM nervonic acid or an equivalent amount of DMSO (control) for 24 hours was performed, followed by replacement with the existing culture medium the next day. The above process was repeated to perform subculture up to P10 (passage 10). As such, B galactosidase staining for measuring cellular senescence was performed at P7, P8, P9, and P10, and cell doubling time and RNA extraction for qRT-PCR were both performed at P10. A more specific procedure therefor was carried out in the same manner as described above.
Also, the doubling time of the control group (DMSO) and the nervonic acid treatment group was measured using CCK (cell counting kit)-8 assay.

[6] = system: control cells (P5), human umbilical cord-derived mesenchymal stem cells; experiment: Cytotoxicity by CCK-8 assay, control cells (P5); format: cell-based; settings: 160 μM
[7] = system: replicative senescence model of human umbilical cord-derived mesenchymal stem cells (P18); experiment: Cell size measurement, replicative senescence model (P18); format: cell-based; settings: 160 μM, 3 days
Protocol: as §4
In addition, since cells have the characteristic of undergoing hypertrophy during the progression of cellular senescence, cell sizes were compared.

[8] = system: human bone marrow-derived mesenchymal stem cells (BM-MSCs/passage 15); experiment: β-galactosidase staining, senescent BM-MSCs; format: cell-based; settings: BM-MSCs passage 15, 3 days
Protocol: Human bone marrow-derived mesenchymal stem cells (BM-MSCs) were purchased from Cambrex (Lonza, #PT-2501).
as §2, §3

[9] = system: senescence markers P16 and P21; experiment: qRT-PCR of senescence markers p16 and p21 at P10 after treatment at each passage; format: cell-based, human; settings: 160 μM for 24 hours at each passage
Protocol: Specifically, qRT-PCR performed in this example is as follows: after treating the replicative senescence model (P18) with nervonic acid for 3 days, total RNA was extracted using Trizol (Invitrogen, MA, USA) according to the method provided by the vendor. After quantifying the extracted total RNA, random hexamer and dNTP were added, and PCR was performed at 65° C. for 5 minutes. 5× SSIV buffer, 100 mM DTT, RNAse OUT, and Superscript IV RT were added and reverse transcription was performed to synthesize cDNA, and then qRT-PCR was performed to measure gene expression, and the expression levels were compared through 2^−ΔΔCt analysis.
as §5
Specifically, from the day after human-derived mesenchymal stem cells were subcultured, treatment with 160 μM nervonic acid or an equivalent amount of DMSO (control) for 24 hours was performed, followed by replacement with the existing culture medium the next day. The above process was repeated to perform subculture up to P10 (passage 10). […]

CCCCCCCC/C=C\CCCCCCCCCCCCCC(=O)O [nervonic acid]
expression of CD11b, a mesenchymal stem cell-negative marker [1]: decreased | expression of mesenchymal stem cell-positive markers CD44, CD73, CD90, CD105, and CD166 [1]: restored | progression of senescence (β-galactosidase staining) compared to control group (DMSO) [2]: progression of senescence was significantly inhibited | progression of senescence (β-galactosidase staining) compared to control group (DMSO) [3]: progression of senescence was significantly inhibited | cell proliferation [4]: no change in proliferation | doubling time [5]: 24.7 h | change in cell viability [6]: no change in cell viability | cell size, fold decrease compared to before treatment [7]: 0.47±0.03 fold | progression of senescence (β-galactosidase staining) compared to control group (DMSO) [8]: progression of senescence was significantly inhibited | p16 mRNA expression, fold compared to control group (DMSO) [9]: 0.84±0.05 fold | p21 mRNA expression, fold compared to control group (DMSO) [9]: 0.84±0.03 fold
